From PubChem BioAssay (NCI) come the findings set out here.

Common to all, as to assay: DTP human tumour cell line panel, 48 h
Test [1] has as its system DU-145 prostate.
Test [2] concerns RXF 393 renal.
The subject of test [3] is COLO 205 colon.
Test [4] has as its system PC-3 prostate.
Test [5] concerns NCI-H460 lung.
Test [6] deals with MDA-MB-435.
The test system of test [7] is SNB-19 CNS.
For test [8], the system named is HCC-2998 colon.
Test [9] concerns OVCAR-5 ovarian.
Test [10] has as its system RPMI-8226 leukemia.
Test [11] has as its system HCT-116 colon.
Test [12] has as its system K-562 leukemia.
Test [13] deals with M14 melanoma.
Test [14] deals with MCF7 breast.
For test [15], the system named is SN12C renal.
Test [16] concerns U251 CNS.
Test [17] concerns MDA-MB-231 breast.
In test [18] the test system is 786-0 renal.
For test [19], the system named is HOP-62 NSCLC.

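Values below derive from 48-hour exposures of cells grown in 96-well plates, with endpoints linearly interpolated between the two concentrations bracketing the appropriate inhibition level. TGI denotes the concentration required for complete inhibition of growth.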 Some results are limits rather than exact numbers.

In general, TGI refers to the concentration giving total growth inhibition. The low end stands for greater sensitivity of the cells, the high end for lower sensitivity of the cells. Regarding `CC1(c2ccc(Cl)cc2)C=C(c2ccc(Cl)cc2)C(C#N)=C(C(C#N)C#N)N1` (stereo not drawn), the TGI in [1] came to 29.6 µM; in [2], 38.2 µM; in [3] it was 32.8 µM; in test [4], 31.5 µM; in test [5], 52.9 µM; in test [6], 34.5 µM. Further, the TGI was 37.2 µM in [7]; 31.3 µM in test [8]; 33 µM in [9]; greater than 100 µM in [10]; 27.3 µM in test [11]; greater than 100 µM in [12]. Further, the TGI in test [13] came to 36 µM; in test [14], 37.3 µM; in [15] it was 33.5 µM; in [16], 33 µM; in [17], 54.9 µM; in [18], 26.9 µM. This compound also yielded a total growth inhibition concentration (TGI) in test [19] of 31.9 µM.
On to `CCCCCC(=O)OC[n+]1cccc(-c2c(COC(=O)NC(C)C)c(COC(=O)NC(C)C)c3n2CCC3)c1`, for which the TGI is greater than 100 µM in [1]; greater than 67.1 µM in [2]; greater than 100 µM in test [3]; greater than 100 µM in test [4]; greater than 100 µM in [5]; greater than 100 µM in test [6]. Moreover, the TGI in [7], in [8], in test [9], in test [10], in [11] and in test [12] was greater than 100 µM each time. For the same compound, the TGI in test [13], in test [14], in [15], in test [16], in test [17] and in [18] was greater than 100 µM each time. The TGI in test [19] is greater than 100 µM.
Take `Cc1ccc2c(=O)cc(-c3cc(C)sc3C)[nH]c2n1`: the TGI in test [1] was greater than 94.5 µM; in test [2], greater than 24.4 µM; in test [3], 7.52 µM; in test [4], greater than 30.2 µM; in test [5] it was greater than 100 µM; in [6] it was 2.86 µM. The TGI was greater than 100 µM in test [7]; 36.3 µM in test [8]; greater than 100 µM in test [9]; greater than 20.5 µM in [10]; greater than 69 µM in [11]; greater than 100 µM in [12]. In addition, the TGI is greater than 100 µM in test [13]; greater than 100 µM in test [14]; greater than 93.4 µM in test [15]; greater than 100 µM in test [16]; 65.8 µM in test [17]; greater than 100 µM in test [18]. Also, in test [19], the TGI is greater than 100 µM.
For the compound `CC(C)(C)OC(=O)/N=C/c1c(O)c2ccccc2oc1=O`, the TGI in test [1], in [2], in test [3], in test [4], in test [5] and in test [6] was greater than 100 µM each time. In addition, the TGI in test [7], in [8], in test [9], in test [10], in test [11] and in test [12] was greater than 100 µM throughout. Also, the TGI in test [13] was greater than 100 µM; in test [14], greater than 100 µM; in test [15] it was greater than 100 µM; in [16] it was greater than 100 µM; in test [17], 86 µM; in test [18], greater than 100 µM. Also, the TGI in test [19] is greater than 100 µM.
Regarding `Cc1nc2ccccc2n1Cc1nnc(-c2ccccc2)o1`, the TGI in [1] was greater than 100 µM; in [2], greater than 100 µM; in test [3], greater than 100 µM; in test [4], greater than 100 µM; in [5], greater than 100 µM; in test [6], 0.692 µM. Also, the concentration for total growth inhibition (TGI) in test [7], in test [8], in [9], in test [10], in [11] and in [12] was greater than 100 µM in each case. Further, the TGI in test [13], in [14], in test [15], in [16], in test [17] and in test [18] was greater than 100 µM throughout. In addition, in test [19], the TGI was greater than 100 µM.
As for `Cc1nc2ccc(S(=O)(=O)O)cc2c(=O)n1-c1ccc(C(=O)NN2C(=O)C(Cl)C2c2cccs2)cc1` (stereo not drawn), the TGI in test [1] is greater than 100 µM; in test [2], greater than 100 µM; in [3], greater than 100 µM; in test [4], greater than 100 µM; in test [5], greater than 100 µM; in test [6], 89.8 µM. For the same compound, the TGI in test [7], in test [8], in test [9], in test [10], in test [11] and in test [12] was greater than 100 µM in each case. In addition, the concentration for total growth inhibition (TGI) in test [13] is 41.4 µM; in test [14] it was greater than 100 µM; in test [15], greater than 100 µM; in test [16], greater than 100 µM; in [17], 45.1 µM; in [18], greater than 100 µM. This compound yielded a TGI in [19] of 60.1 µM.
In the case of `COc1cc(Nc2cc(Cl)cc(Cl)c2)nc(N)n1`, the TGI in [1] amounted to 48.6 µM; in test [2] it was 28.4 µM; in test [3], 44.2 µM; in [4], 59.6 µM; in test [5], 34 µM; in test [6] it was 75.8 µM. For the same compound, the concentration for total growth inhibition (TGI) in test [7] was 64.8 µM; in [8], 34 µM; in [9] it was greater than 100 µM; in [10], 56.5 µM; in test [11], 31 µM; in test [12], greater than 100 µM. Besides, the TGI in [13] was determined as 42.1 µM; in test [14], 91.4 µM; in [15], 40.1 µM; in test [16], 41.2 µM; in test [17] it was 43.8 µM; in test [18] it was 31.8 µM. For the same compound, the TGI in test [19] was found to be 36.6 µM.
